Columns and labels:
RBD-ACE2 interaction = target: T1, RBD-ACE2 interaction (Severe acute respiratory syndrome coronavirus 2, UniProt P0DTC2); format: binding; conditions: compared to the negative control
T1 construct: purchased Genscript

[1] = system: poly I:C stimulated Calu 3 cells; test: Gene expression (qPCR) in poly I:C stimulated Calu3 cells; format: cell-based; conditions: 10 ug/ml poly IC 24 h, 20 uM LG 48 h
Procedure: (§1) FIG. 2A-B are a series of graphs depicting broad spectrum anti-viral and anti-inflammatory activity of LG. Histograms showing mRNA expression assessed by qPCR. A) Effect of LG on poly I:C (P I:C) stimulated Calu 3 cells with or without LG treatment, B) Anti-inflammatory effect of LG treatment in NL63 infected Calu 3 cells. Cells were collected 48 hrs of post infection (PI) with NL63 virus (0.1 MOI) (C, Control) and treated with LG (20 uM) (T, Treatment), n=3, Data expressed as mean±SEM, * Compared to NL63, *p<0.05, **p<0.005, ***p<0.0005.
(§2) To examine whether LG has broad spectrum antiviral activity, Calu3 cells are stimulated with 10 ug/ml poly IC for 24 h, treated with 20 uM LG for 48 h, and then RNA was isolated for gene expression analyses. […] Further the inventors examined the effect of LG on the Calu3 lung cells infected with human coronavirus NL63.

human coronavirus NL63 = test: Gene expression (qPCR) in NL63 infected Calu3 cells; format: cell-based; conditions: NL63 0.1 MOI, LG 20 uM, 48 hrs PI
Procedure: as §1, §2

[2] = system: icSARS-CoV-2nMG (CoV2-GFP); format: cell-based, SARS-CoV-2
WA strain = test: Plaque assay, WA strain; format: cell-based, SARS-CoV-2
Delta strain = test: Plaque assay, Delta strain; format: cell-based, SARS-CoV-2
[3] = system: mouse coronavirus (MHV), K18 hACE2 transgenic mouse, and mouse adapted coronavirus (MA10) infection models
[4] = system: mouse coronavirus MHV-A59-GFP
[5] = system: mouse coronavirus MHV-A59-GFP; test: microbe, parasite or virus in culture; conditions: read-out: inhibition of infection
icSARS-CoV-2nMG = format: cell-based, SARS-CoV-2

SMILES: CC(O)c1ccc(CCOc2ccc(CC3SC(=O)NC3=O)cc2)nc1 (stereo not drawn) [LG, leriglitazone]
- interference of RBD-ACE2 interaction (RBD-ACE2 interaction): significantly inhibited the RBD-ACE2 interaction in a dose-dependent manner
- expression of IL-6, IL1β, IFNγ, TNFα, NFkB, NLRP3 [1]: inhibits expression
- expression of IL-10 and PPARγ [1]: increases expression
- expression of anti-inflammatory genes at transcript level (human coronavirus NL63): altered expression of anti-inflammatory genes at the transcript level similar to that found in poly-IC experiment
- CoV2 infection [2]: dose-dependent decrease of CoV2 infection
- infected GFP-positive cells ([2]; LG 20 uM, WA strain, Caco2): significant reduction in infected GFP-positive cells
- reduction in plaque titers (WA strain): > 2 log
- reduction in plaque titers (Delta strain): > 2 log
- efficacy in in vivo studies [3]: > 70%
- cell killing (bright field images) ([4]; 20 uM LG, DBT cells): without killing the cells
- inhibition of coronavirus infection (dose dependence) ([4]; DBT cells, GFP): inhibited coronavirus infection in a dose-dependent fashion
- reduction in infection versus Remdesvir ([4]; LG 20 uM vs Remdesvir 10 nM): significantly higher reduction in infection
- N transcript ([4]; LG 20 uM, compared to vehicle control): significant reduction in N transcript
- inhibition at 20 µM [5]: > 70%

SMILES: CCCCC/C=C\C/C=C\CCCCCCCC(=O)O [LLA, linoleic acid]
- viral infection as seen by N gene expression (icSARS-CoV-2nMG): significantly decreased viral infection
